Laboratory results published in US20160108049A1 (TAKEDA Gmbh, priority 2011, published 2016).

How the values were obtained:
human PDE5 = biological target: T1, human PDE5 (Homo sapiens, UniProt O76074); test: Inhibition of PDE5 activity (platelet lysate, SPA assay); assay type: biochemical; conditions: 0.5 μM cGMP, read-out: PDE5 Inhibitory values measured as -logIC50 (converted)
T1 construct: from tissue; host or cells: human platelets from fresh donor blood (platelet lysate)
In short: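 SPA readout of [3H]cGMP hydrolysis (0.5 μM, 15 min, 37 °C after 5 min preincubation), stopped with yttrium silicate beads containing IBMX. Enzyme was lysate from human platelets, used at 10–20% substrate turnover, with PDE3 (motapizone 1 μM) and PDE2 (10 nM) blockers present. IC50 values fitted non-linearly from concentration-effect curves.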

PDE4B1 = biological target: T2, PDE4B1 (Homo sapiens, UniProt Q07343); test: Inhibition of PDE4 activity (PDE4B1, SPA assay); assay type: biochemical; conditions: recombinant PDE4B1, 0.5 μM cAMP; read-out: PDE4B1 Inhibitory values measured as -logIC50 (converted)
T2 construct: made in house; host or cells: SF21 insect cells (baculovirus; virus made in SF9 cells, pCR-Bac vector)
In short: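 Read-out is SPA yttrium silicate bead scintillation after IBMX-containing beads stop the reaction. Insect-cell (SF21) lysate enzyme hydrolysed 0.5 μM [3H]cAMP at pH 7.4 with 5 mM Mg2+ for 15 min after a 5 min 37 °C preincubation; IC50 fitted by non-linear regression.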

T2 sequence (Q07343 whole entry): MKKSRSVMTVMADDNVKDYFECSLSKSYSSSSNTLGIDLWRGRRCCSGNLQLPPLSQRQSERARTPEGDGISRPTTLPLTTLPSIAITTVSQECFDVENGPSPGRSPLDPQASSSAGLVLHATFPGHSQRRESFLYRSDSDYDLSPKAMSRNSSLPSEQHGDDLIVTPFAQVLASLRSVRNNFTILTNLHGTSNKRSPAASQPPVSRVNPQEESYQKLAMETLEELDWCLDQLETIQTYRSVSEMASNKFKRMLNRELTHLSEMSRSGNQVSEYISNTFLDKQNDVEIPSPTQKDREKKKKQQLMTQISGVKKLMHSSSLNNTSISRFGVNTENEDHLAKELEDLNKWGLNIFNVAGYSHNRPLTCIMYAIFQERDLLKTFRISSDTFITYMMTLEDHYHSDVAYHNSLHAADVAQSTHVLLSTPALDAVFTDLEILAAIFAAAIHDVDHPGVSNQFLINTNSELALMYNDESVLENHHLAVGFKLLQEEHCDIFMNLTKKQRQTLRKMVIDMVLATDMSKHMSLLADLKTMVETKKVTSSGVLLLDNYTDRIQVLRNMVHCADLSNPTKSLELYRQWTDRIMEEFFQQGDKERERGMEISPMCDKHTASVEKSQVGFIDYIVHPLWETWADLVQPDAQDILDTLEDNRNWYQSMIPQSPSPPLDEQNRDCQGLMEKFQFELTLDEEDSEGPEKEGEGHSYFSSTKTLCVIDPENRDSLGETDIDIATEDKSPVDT

| IC50 (human PDE5) [nM] | IC50 (PDE4B1) [nM] | Compound |
| --- | --- | --- |
| 1 to 10 | 1 to 10 | COc1ccc(C2=NN(C3CCN(C(=O)[C@@H](Cc4ccc(C#N)cc4)NC(=O)c4c[nH]c5c(-c6c(OCC7CC7)ccc7c6OCO7)ncnc45)CC3)C(=O)[C@@H]3CCCC[C@H]23)cc1OC [Example 16, N-[(2R)-3-(4-cyanophenyl)-1-{4-[(4aS,8aR)-4-(3,4-dimethoxyphenyl)-1-oxo-4a,5,6,7,8,8a-hexahydrophthalazin-2(1H)-yl]piperidin-1-yl}-1-oxopropan-2-yl]-4-[5-(cyclopropylmethoxy)-1,3-benzodioxol-4-yl]-5H-pyrrolo[3,2-d]pyrimidine-7-carboxamide] |
| 1 to 10 | 1 to 10 | CCC1(CC)CC(c2ccc(OC)c(OC)c2)=NN(C2CCN(C(=O)[C@@H](Cc3ccccc3)NC(=O)c3c[nH]c4c(-c5c(OCC6CC6)ccc6c5OCO6)ncnc34)CC2)C1=O [Example 116, 4-[5-(cyclopropylmethoxy)-1,3-benzodioxol-4-yl]-N-[(2R)-1-{4-[3-(3,4-dimethoxyphenyl)-5,5-diethyl-6-oxo-5,6-dihydropyridazin-1(4H)-yl]piperidin-1-yl}-1-oxo-3-phenylpropan-2-yl]-5H-pyrrolo[3,2-d]pyrimidine-7-carboxamide] |
| < 1 | 1 to 10 | COc1ccc(C2=NN(C3CCN(C(=O)[C@@H](Cc4ccc(C(N)=O)cc4)NC(=O)c4c[nH]c5c(-c6c(OCC7CC7)ccc7c6OCO7)ncnc45)CC3)C(=O)[C@@H]3CCCC[C@H]23)cc1OC [Example 7, N-[(2R)-3-(4-carbamoylphenyl)-1-{4-[(4aS,8aR)-4-(3,4-dimethoxyphenyl)-1-oxo-4a,5,6,7,8,8a-hexahydrophthalazin-2(1H)-yl]piperidin-1-yl}-1-oxopropan-2-yl]-4-[5-(cyclopropylmethoxy)-1,3-benzodioxol-4-yl]-5H-pyrrolo[3,2-d]pyrimidine-7-carboxamide] |
| 1 to 10 | 1 to 10 | COc1ccc(C2=NN(C3CCN(C(=O)[C@@H](Cc4ccc(-c5ccccc5)cc4)NC(=O)c4c(C)[nH]c5c(-c6c(OCC7CC7)ccc7c6OCO7)ncnc45)CC3)C(=O)[C@@H]3CCCC[C@H]23)cc1OC [Example 12, N-[(2R)-3-(biphenyl-4-yl)-1-{4-[(4aS,8aR)-4-(3,4-dimethoxyphenyl)-1-oxo-4a,5,6,7,8,8a-hexahydrophthalazin-2(1H)-yl]piperidin-1-yl}-1-oxopropan-2-yl]-4-[5-(cyclopropylmethoxy)-1,3-benzodioxol-4-yl]-6-methyl-5H-pyrrolo[3,2-d]pyrimidine-7-carboxamide] |
| < 1 | < 1 | COc1ccc(C2=NN(C3CCN(C(=O)[C@@H](Cc4c[nH]c5ccccc45)NC(=O)c4c[nH]c5c(-c6c(OCC7CC7)ccc7c6OCO7)ncnc45)CC3)C(=O)[C@@H]3CCCC[C@H]23)cc1OC [Example 91, 4-[5-(cyclopropylmethoxy)-1,3-benzodioxol-4-yl]-N-[(2R)-1-{4-[(4aS,8aR)-4-(3,4-dimethoxyphenyl)-1-oxo-4a,5,6,7,8,8a-hexahydrophthalazin-2(1H)-yl]piperidin-1-yl}-3-(1H-indol-3-yl)-1-oxopropan-2-yl]-5H-pyrrolo[3,2-d]pyrimidine-7-carboxamide] |
| < 1 | < 1 | COc1ccc(C2=NN(C3CCN(C(=O)[C@H](Cc4cccs4)NC(=O)c4c(C)[nH]c5c(-c6c(OCC7CC7)ccc7c6OCO7)ncnc45)CC3)C(=O)[C@@H]3CCCC[C@H]23)cc1OC [Example 74, 4-[5-(cyclopropylmethoxy)-1,3-benzodioxol-4-yl]-N-[(2S)-1-{4-[(4aS,8aR)-4-(3,4-dimethoxyphenyl)-1-oxo-4a,5,6,7,8,8a-hexahydrophthalazin-2(1H)-yl]piperidin-1-yl}-1-oxo-3-(thiophen-2-yl)propan-2-yl]-6-methyl-5H-pyrrolo[3,2-d]pyrimidine-7-carboxamide] |
| 1 to 10 | < 1 | COc1ccc(C2=NN(C3CCN(C(=O)[C@@H](Cc4ccc(F)c(F)c4)NC(=O)c4c(C)[nH]c5c(-c6c(OCC7CC7)ccc7c6OCO7)ncnc45)CC3)C(=O)[C@@H]3CCCC[C@H]23)cc1OC [Example 18, 4-[5-(cyclopropylmethoxy)-1,3-benzodioxol-4-yl]-N-[(2R)-3-(3,4-difluorophenyl)-1-{4-[(4aS,8aR)-4-(3,4-dimethoxyphenyl)-1-oxo-4a,5,6,7,8,8a-hexahydrophthalazin-2(1H)-yl]piperidin-1-yl}-1-oxopropan-2-yl]-6-methyl-5H-pyrrolo[3,2-d]pyrimidine-7-carboxamide] |
| < 1 | < 1 | CC[C@H](NC(=O)c1c(C)[nH]c2c(-c3c(OCC4CC4)ccc4c3OCO4)ncnc12)C(=O)N1CCC(N2N=C(c3ccc(OC)c(OC)c3)[C@H]3CCCC[C@H]3C2=O)CC1 [Example 64, 4-[5-(cyclopropylmethoxy)-1,3-benzodioxol-4-yl]-N-[(2S)-1-{4-[(4aS,8aR)-4-(3,4-dimethoxyphenyl)-1-oxo-4a,5,6,7,8,8a-hexahydrophthalazin-2(1H)-yl]piperidin-1-yl}-1-oxobutan-2-yl]-6-methyl-5H-pyrrolo[3,2-d]pyrimidine-7-carboxamide] |
| 1 to 10 | < 1 | COc1ccc(C2=NN(C3CCN(C(=O)[C@@H](Cc4cc(F)cc(F)c4)NC(=O)c4c[nH]c5c(-c6c(OCC7CC7)ccc7c6OCO7)ncnc45)CC3)C(=O)[C@@H]3CCCC[C@H]23)cc1OC [Example 1, 4-[5-(cyclopropylmethoxy)-1,3-benzodioxol-4-yl]-N-[(2R)-3-(3,5-difluorophenyl)-1-{4-[(4aS,8aR)-4-(3,4-dimethoxyphenyl)-1-oxo-4a,5,6,7,8,8a-hexahydrophthalazin-2(1H)-yl]piperidin-1-yl}-1-oxopropan-2-yl]-5H-pyrrolo[3,2-d]pyrimidine-7-carboxamide] |
| < 1 | 1 to 10 | COc1ccc(C2=NN(C3CCN(C(=O)[C@@H](Cc4ccc(Cl)cc4)NC(=O)c4c[nH]c5c(-c6c(OCC7CC7)ccc7c6OCO7)ncnc45)CC3)C(=O)[C@@H]3CCCC[C@H]23)cc1OC [Example 27, N-[(2R)-3-(4-chlorophenyl)-1-{4-[(4aS,8aR)-4-(3,4-dimethoxyphenyl)-1-oxo-4a,5,6,7,8,8a-hexahydrophthalazin-2(1H)-yl]piperidin-1-yl}-1-oxopropan-2-yl]-4-[5-(cyclopropylmethoxy)-1,3-benzodioxol-4-yl]-5H-pyrrolo[3,2-d]pyrimidine-7-carboxamide] |
| 1 to 10 | 1 to 10 | COc1ccc(C2=NN(C3CCN(C(=O)[C@@H](NC(=O)c4c[nH]c5c(-c6c(OCC7CC7)ccc7c6OCO7)ncnc45)C4CCCCC4)CC3)C(=O)[C@@H]3CCCC[C@H]23)cc1OC [Example 73, N-[(1S)-1-cyclohexyl-2-{4-[(4aS,8aR)-4-(3,4-dimethoxyphenyl)-1-oxo-4a,5,6,7,8,8a-hexahydrophthalazin-2(1H)-yl]piperidin-1-yl}-2-oxoethyl]-4-[5-(cyclopropylmethoxy)-1,3-benzodioxol-4-yl]-5H-pyrrolo[3,2-d]pyrimidine-7-carboxamide] |
| 1 to 10 | < 1 | CC[C@H](C)[C@H](NC(=O)c1c[nH]c2c(-c3c(OCC4CC4)ccc4c3OCO4)ncnc12)C(=O)N1CCC(N2N=C(c3ccc(OC)c(OC)c3)[C@H]3CCCC[C@H]3C2=O)CC1 [Example 71, 4-[5-(cyclopropylmethoxy)-1,3-benzodioxol-4-yl]-N-[(2S,3S)-1-{4-[(4aS,8aR)-4-(3,4-dimethoxyphenyl)-1-oxo-4a,5,6,7,8,8a-hexahydrophthalazin-2(1H)-yl]piperidin-1-yl}-3-methyl-1-oxopentan-2-yl]-5H-pyrrolo[3,2-d]pyrimidine-7-carboxamide] |
| < 1 | < 1 | COc1ccc(C2=NN(C3CCN(C(=O)[C@@H](Cc4ccccc4Cl)NC(=O)c4c(C)[nH]c5c(-c6c(OCC7CC7)ccc7c6OCO7)ncnc45)CC3)C(=O)[C@@H]3CCCC[C@H]23)cc1OC [Example 34, N-[(2R)-3-(2-chlorophenyl)-1-{4-[(4aS,8aR)-4-(3,4-dimethoxyphenyl)-1-oxo-4a,5,6,7,8,8a-hexahydrophthalazin-2(1H)-yl]piperidin-1-yl}-1-oxopropan-2-yl]-4-[5-(cyclopropylmethoxy)-1,3-benzodioxol-4-yl]-6-methyl-5H-pyrrolo[3,2-d]pyrimidine-7-carboxamide] |
| < 1 | < 1 | COc1ccc(C2=NN(C3CCN(C(=O)[C@H](Cc4ccccn4)NC(=O)c4c[nH]c5c(-c6c(OCC7CC7)ccc7c6OCO7)ncnc45)CC3)C(=O)[C@@H]3CCCC[C@H]23)cc1OC [Example 39, 4-[5-(cyclopropylmethoxy)-1,3-benzodioxol-4-yl]-N-[(2S)-1-{4-[(4aS,8aR)-4-(3,4-dimethoxyphenyl)-1-oxo-4a,5,6,7,8,8a-hexahydrophthalazin-2(1H)-yl]piperidin-1-yl}-1-oxo-3-(pyridin-2-yl)propan-2-yl]-5H-pyrrolo[3,2-d]pyrimidine-7-carboxamide] |
| 1 to 10 | 1 to 10 | COc1ccc(C2=NN(C3CCN(C(=O)[C@@H](CCC(=O)O)NC(=O)c4c[nH]c5c(-c6c(OCC7CC7)ccc7c6OCO7)ncnc45)CC3)C(=O)[C@@H]3CCCC[C@H]23)cc1OC [Example 101, (4R)-4-[({4-[5-(cyclopropylmethoxy)-1,3-benzodioxol-4-yl]-5H-pyrrolo[3,2-d]pyrimidin-7-yl}carbonyl)amino]-5-{4-[(4aS,8aR)-4-(3,4-dimethoxyphenyl)-1-oxo-4a,5,6,7,8,8a-hexahydrophthalazin-2(1H)-yl]piperidin-1-yl}-5-oxopentanoic acid] |
